In PubChem BioAssay (NCI):
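All cell lines were grown in 96-well plates and treated with compound for 48 hours. TGI: concentration producing complete growth inhibition.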

How the values were obtained:
Test in all cases: NCI-60 cell line screen, 48 h
SF-268 CNS = tested on: SF-268 CNS
SF-295 CNS = tested on: SF-295 CNS
CAKI-1 renal = tested on: CAKI-1 renal
NCI-H460 lung = tested on: NCI-H460 lung
NCI-H522 lung = tested on: NCI-H522 lung
EKVX NSCLC = tested on: EKVX NSCLC
IGROV1 ovarian = tested on: IGROV1 ovarian
OVCAR-5 ovarian = tested on: OVCAR-5 ovarian
OVCAR-4 ovarian = tested on: OVCAR-4 ovarian
COLO 205 colon = tested on: COLO 205 colon
A549 NSCLC = tested on: A549 NSCLC
SK-MEL-2 melanoma = tested on: SK-MEL-2 melanoma
UACC-62 melanoma = tested on: UACC-62 melanoma
MDA-MB-231 breast = tested on: MDA-MB-231 breast
MDA-N = tested on: MDA-N
PC-3 prostate = tested on: PC-3 prostate

Compound	TGI (SF-268 CNS) [µM]	TGI (SF-295 CNS) [µM]	TGI (CAKI-1 renal) [µM]	TGI (NCI-H460 lung) [µM]	TGI (NCI-H522 lung) [µM]	TGI (EKVX NSCLC) [µM]	TGI (IGROV1 ovarian) [µM]	TGI (OVCAR-5 ovarian) [µM]	TGI (OVCAR-4 ovarian) [µM]	TGI (COLO 205 colon) [µM]	TGI (A549 NSCLC) [µM]	TGI (SK-MEL-2 melanoma) [µM]	TGI (UACC-62 melanoma) [µM]	TGI (MDA-MB-231 breast) [µM]	TGI (MDA-N) [µM]	TGI (PC-3 prostate) [µM]
FC(F)(F)c1nc2c(ccc3[nH]c4c(-c5ccccc5)nccc4c32)[nH]1	> 100	> 100	> 100	> 100	> 100	> 100	> 100	> 100	> 100	> 100	> 100	> 100	> 100	–	–	–
CC(=O)OCc1ncccc1C(OC(C)=O)OC(C)=O	> 100	> 100	> 100	> 100	> 100	> 100	> 100	> 100	> 100	> 100	> 100	> 100	> 100	–	–	–
CCOC(=O)c1nc2ccc(C(F)(F)F)cc2nc1NCc1ccc(F)cc1	53.9	> 100	> 100	75.4	88.9	> 100	77.3	> 100	90.9	81	> 100	> 100	> 100	> 100	> 100	> 100
CCC12CN(C(=O)OC)C3C(Br)C1CCC(=O)C32 (stereo unspecified)	> 100	> 100	> 100	> 100	> 100	> 100	> 100	> 100	> 100	> 100	> 100	> 100	> 100	> 100	> 100	> 100
CN(C)CCSC(=Nc1ccccc1)n1cccc1	> 100	> 100	> 100	> 100	> 100	–	> 100	> 100	> 100	> 100	> 100	> 100	> 100	–	–	–
CC1=C(c2ccccc2)CON(c2ccccc2)C1	> 100	> 100	> 100	> 100	53.8	> 100	> 100	> 100	> 100	> 100	> 100	> 100	> 100	–	–	–
C[C@@H]1C[C@@H]2C(=O)N(c3ccccc3)C(=O)[C@@H]2c2[nH]c3ccc(Br)cc3c21	> 100	90.9	> 100	> 100	78.5	> 100	> 100	> 100	57.9	> 100	90.1	> 100	> 100	–	–	–
O[C@]12c3ccccc3C1CCCC2N1CCOCC1 (stereo partly specified)	> 100	> 100	–	> 100	> 100	> 100	–	–	> 100	> 100	> 100	> 100	> 100	–	–	–
